Measurements: PubChem BioAssay AID248 (DTP/NCI, 2004)
Inconclusive results and toxic doses are left out. No stated cut-off is given here; in the data, active means T/C of 150% or more; inactive means T/C below 125%.

Tested on: L1210 leukemia ip in BDF1 mice, survival T/C
Assay: NCI In Vivo Anticancer Drug Screen. Data for tumor model L1210 Leukemia (intraperitoneal) in B6D2F1 (BDF1) mice
Conditions: endpoint: mean survival time, higher = longer survival
Summary of the method: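 Transplanted-tumor mice were given test agent; controls received vehicle only. Survival readings from the two groups were divided (treated over control).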

[1] = dose: 25.0 mg/kg/injection, schedule: Q01DX009 (ip), vehicle: Klucel (hydroxypropylcellulose) (HPC)
[2] = dose: 50.0 mg/kg/injection, schedule: Q01DX009 (ip), vehicle: Klucel (hydroxypropylcellulose) (HPC)
[3] = dose: 100.0 mg/kg/injection, schedule: Q01DX009 (ip), vehicle: Klucel (hydroxypropylcellulose) (HPC)
[4] = dose: 100.0 mg/kg/injection, schedule: Q04DX002 (ip), vehicle: Klucel (hydroxypropylcellulose) (HPC)
[5] = dose: 200.0 mg/kg/injection, schedule: Q04DX002 (ip), vehicle: Klucel (hydroxypropylcellulose) (HPC)
[6] = dose: 50.0 mg/kg/injection, schedule: Q01DX001 (ip), vehicle: carboxymethylcellulose (CMC)
[7] = dose: 100.0 mg/kg/injection, schedule: Q01DX001 (ip), vehicle: carboxymethylcellulose (CMC)
[8] = dose: 200.0 mg/kg/injection, schedule: Q01DX001 (ip), vehicle: carboxymethylcellulose (CMC)
[9] = dose: 400.0 mg/kg/injection, schedule: Q01DX001 (ip), vehicle: carboxymethylcellulose (CMC)
[10] = dose: 100.0 mg/kg/injection, schedule: Q04DX003 (ip), vehicle: saline
[11] = dose: 200.0 mg/kg/injection, schedule: Q04DX003 (ip), vehicle: saline
[12] = dose: 400.0 mg/kg/injection, schedule: Q04DX003 (ip), vehicle: saline
[13] = dose: 100.0 mg/kg/injection, schedule: Q01DX009 (ip), vehicle: saline
[14] = dose: 200.0 mg/kg/injection, schedule: Q01DX009 (ip), vehicle: saline
[15] = dose: 400.0 mg/kg/injection, schedule: Q04DX002 (ip), vehicle: Klucel (hydroxypropylcellulose) (HPC)
[16] = dose: 400.0 mg/kg/injection, schedule: Q01DX009 (ip), vehicle: saline
[17] = dose: 100.0 mg/kg/injection, schedule: Q04DX003 (ip), vehicle: saline with Tween-80
[18] = dose: 200.0 mg/kg/injection, schedule: Q04DX003 (ip), vehicle: saline with Tween-80
[19] = dose: 400.0 mg/kg/injection, schedule: Q04DX003 (ip), vehicle: saline with Tween-80
[20] = dose: 100.0 mg/kg/injection, schedule: Q01DX001 (ip), vehicle: saline
[21] = dose: 200.0 mg/kg/injection, schedule: Q01DX009 (ip), vehicle: Klucel (hydroxypropylcellulose) (HPC)

Measured: T/C

COc1cccc2cc([N+](=O)[O-])oc12
inactive: [1] 98 % of control | [2] 93 % of control | dose: 50.0 mg/kg/injection, schedule: Q04DX002 (ip), vehicle: Klucel (hydroxypropylcellulose) (HPC) 105 % of control | [3] 101 % of control | [4] 94 % of control | [5] 101 % of control

COc1cccc(CCNC(=O)CCN2C(=O)c3ccccc3C2=O)c1
inactive: [6] 94 % of control | [7] 96 % of control | [8] 100 % of control | [9] 100 % of control

CC(=O)C(C(C)=O)c1ccccc1.CC(=O)C(C(C)=O)c1ccccc1.[Ni]
inactive: dose: 6.0 mg/kg/injection, schedule: Q01DX009 (ip), vehicle: saline 94 % of control | dose: 12.0 mg/kg/injection, schedule: Q01DX009 (ip), vehicle: saline 94 % of control | dose: 25.0 mg/kg/injection, schedule: Q01DX009 (ip), vehicle: saline 102 % of control

CCCC[n+]1cccc(C(N)=O)c1
inactive: [10] 100 % of control | [11] 100 % of control | [12] 89 % of control

CN(C)C(=S)SCCOc1ccc(Cl)cc1Cl
inactive: dose: 25.0 mg/kg/injection, schedule: Q04DX003 (ip), vehicle: Klucel (hydroxypropylcellulose) (HPC) 95 % of control | dose: 50.0 mg/kg/injection, schedule: Q04DX003 (ip), vehicle: Klucel (hydroxypropylcellulose) (HPC) 98 % of control | dose: 100.0 mg/kg/injection, schedule: Q01DX001 (ip), vehicle: Klucel (hydroxypropylcellulose) (HPC) 96 % of control | dose: 100.0 mg/kg/injection, schedule: Q04DX003 (ip), vehicle: Klucel (hydroxypropylcellulose) (HPC) 101 % of control | dose: 200.0 mg/kg/injection, schedule: Q01DX001 (ip), vehicle: Klucel (hydroxypropylcellulose) (HPC) 100 % of control | dose: 400.0 mg/kg/injection, schedule: Q01DX001 (ip), vehicle: Klucel (hydroxypropylcellulose) (HPC) 104 % of control

O=C/C(Br)=C(/Br)C(=O)O
inactive: dose: 6.25 mg/kg/injection, schedule: Q04DX002 (ip), vehicle: saline 100 % of control | dose: 12.5 mg/kg/injection, schedule: Q04DX002 (ip), vehicle: saline 100 % of control | dose: 25.0 mg/kg/injection, schedule: Q04DX002 (ip), vehicle: saline + alcohol 114 % of control | dose: 25.0 mg/kg/injection, schedule: Q04DX002 (ip), vehicle: saline 111 % of control

CCC(C)CNCCO (stereo not drawn)
inactive: dose: 50.0 mg/kg/injection, schedule: Q01DX009 (ip), vehicle: saline 92 % of control | [13] 100 % of control | [14] 103 % of control

CCOC(=O)COc1cc(Cl)ccn1
inactive: [4] 110 % of control | [5] 104 % of control | [15] 104 % of control

Cc1ccc([N+](=O)[O-])cc1S(=O)(=O)O
inactive: [13] 95 % of control | [10] 102 % of control | [14] 102 % of control | [11] 102 % of control | [16] 98 % of control | [12] 96 % of control

CC(C)c1nc(-c2ccccc2)c(-c2ccccc2)[nH]1
inactive: [17] 93 % of control | [18] 98 % of control | [19] 93 % of control

CCOC(=O)NN1C(=O)c2cccc3c([N+](=O)[O-])ccc(c23)C1=O
inactive: dose: 12.5 mg/kg/injection, schedule: Q01DX009 (ip), vehicle: Klucel (hydroxypropylcellulose) (HPC) 105 % of control | [1] 94 % of control | [2] 96 % of control

COc1ccccc1CC(C)N (stereo not drawn)
inactive: dose: 5.0 mg/kg/injection, schedule: Q01DX001 (ip), vehicle: saline 100 % of control | dose: 10.0 mg/kg/injection, schedule: Q01DX001 (ip), vehicle: saline 102 % of control | dose: 20.0 mg/kg/injection, schedule: Q01DX001 (ip), vehicle: saline 102 % of control | dose: 20.0 mg/kg/injection, schedule: Q01DX009 (ip), vehicle: saline 106 % of control | dose: 40.0 mg/kg/injection, schedule: Q01DX001 (ip), vehicle: saline 96 % of control | dose: 40.0 mg/kg/injection, schedule: Q01DX009 (ip), vehicle: saline 97 % of control | dose: 80.0 mg/kg/injection, schedule: Q01DX009 (ip), vehicle: saline 111 % of control | [20] 103 % of control

CC(C)CC(NS(=O)(=O)Cc1ccccc1)C(=O)NN (stereo not drawn)
inactive: dose: 100.0 mg/kg/injection, schedule: Q01DX001 (ip), vehicle: other 98 % of control | dose: 200.0 mg/kg/injection, schedule: Q01DX001 (ip), vehicle: other 96 % of control | dose: 400.0 mg/kg/injection, schedule: Q01DX001 (ip), vehicle: other 110 % of control

C[N+]12CN3CN(CN(C3)C1)C2
inactive: [6] 104 % of control | [7] 106 % of control | [20] 100 % of control | [13] 110 % of control | [8] 101 % of control | dose: 200.0 mg/kg/injection, schedule: Q01DX001 (ip), vehicle: saline 91 % of control | [14] 114 % of control | [9] 98 % of control | dose: 400.0 mg/kg/injection, schedule: Q01DX001 (ip), vehicle: saline 96 % of control | [16] 105 % of control

O=C(N/N=C/c1ccccc1Cl)c1ccccc1NC(=O)C1CC1
inactive: [3] 97 % of control | [21] 98 % of control | dose: 400.0 mg/kg/injection, schedule: Q01DX009 (ip), vehicle: Klucel (hydroxypropylcellulose) (HPC) 101 % of control

NC(N)=NCCCC(=O)O
inactive: [13] 92 % of control | [10] 110 % of control | [14] 94 % of control | [11] 108 % of control | [16] 92 % of control | [12] 103 % of control

COc1ccc(/C=C(\C(=O)O)c2cccc3ccccc23)cc1
inactive: [3] 91 % of control | [4] 100 % of control | [21] 107 % of control | [5] 86 % of control | [15] 104 % of control

O=C(O)C1C2C=CC(CC2)C1C(=O)O (stereo not drawn)
inactive: [10] 96 % of control | [11] 90 % of control | [12] 94 % of control

OCCSc1ncnc2nc[nH]c12
inactive: [17] 104 % of control | [18] 98 % of control | [19] 104 % of control

CCOc1ccc(OCC)cc1
inactive: [17] 101 % of control | [18] 101 % of control | [19] 94 % of control

Fc1cc(N(CCCl)CCCl)ccc1CN1CCCN(Cc2ccc(N(CCCl)CCCl)cc2F)C1c1ccc(N(CCCl)CCCl)cc1F
inactive: [6] 100 % of control | [7] 96 % of control | [8] 102 % of control | [9] 94 % of control

C=C(C)c1c2c(Sc3ccc(C(C)(C)C)cc3)cccc2cc2cccc(Sc3ccc(C(C)(C)C)cc3)c12
inactive: [17] 98 % of control | [18] 93 % of control | [19] 91 % of control

CC(=C(C#N)C#N)c1csc2ccccc12
inactive: [7] 97 % of control | [8] 87 % of control | [9] 92 % of control
